Experimental data from patent publication US8748423B2, “Compositions and methods for the prevention and treatment of cancer” (Kinex Pharmaceuticals, LLC, priority 2010, dated 2014).
pIC50: −log10 of the molar value. “And” between values parts separate entries of the source, which are not always exact repeats. Equal entries are not always repeated. “Also recorded” adds a separate entry of the source.

How the values were obtained:
SK-N-FI = experiment: brain tumor cell line growth inhibition, SK-N-FI; type: cell-based; conditions: Homo sapiens, neuroblastoma
Protocol: (§1) These GI50s were determined using standard tumor growth inhibition assays.

GL261 glioma [1] = experiment: intracranial GL261 glioma survival study; type: in vivo, C57BL/6 mice
Protocol: (§2) The studies were conducted in C57BL/6 mice. GL261 glioma cells (1×10^5 in 5 μl DMEM) were implanted intracranial coordinates: bregma, lateral 2.0 mm, anterior 1.2 mm, 3.0 mm depth dura. Treatment was initiated 3 days post implantation.
The median survival range and the log-rank (Mantel-Cox) statistical test results comparing the survival distributions of the samples.

[2] = body weight in GL261 glioma survival study; type: in vivo, C57BL/6 mice
Protocol: as §2
FIGS. 2A-F show the weight gain in each of the C57BL/6 mice in the different treatment groups. The average weight at endpoint for each of the treatment groups is shown below in Table 12. FIG. 3 is a graph showing the average weights over a 40-day period for each of the treatment groups.

GL261 = experiment: brain tumor cell line growth inhibition, GL261; type: cell-based; conditions: GL261, mouse glioblastoma
Protocol: as §1

GL261 glioma [3] = experiment: orthotropic GL261 glioma model, immune-competent mice; type: in vivo, C57BL/6 mice
Excerpt: FIGS. 4A-C are a series of graphs showing the survival of C57BL6 mice with intracerebral GL261 glioma implants. Mice received intracerebral implants of 1×10^5 GL261 cells by stereotactic injection at 2 mm lateral, 1 mm anterior to bregma at 3 mm depth. After 4 days mice began indicated regimen of oral Compound 76. […] Compound 76 extended median survival from 21 to 29 days (range). n=10. […] Compound 76 extended median survival >100 days (range), with up to 60% of drug treated mice experiencing complete tumor regression, n=10. Long term survivors were confirmed tumor free by high field MRI in FIG. 6. […] See high field MRI in FIG. 6
(§3) Compound 76 was also evaluated in the orthotropic GL261 glioma model in immune-competent, syngeneic C57BL/6 mice. Mice implanted intracerebrally with 1×10^5 GL261 cells treated with vehicle alone (saline) have a median survival time (MeST) of 21 days (range 18-28). Mice treated by oral Compound 76 (30 mg/kg, b.i.d.) have a MeST of 30.5 days ranging 23-32 days. In contrast, when Compound 76 is given orally at (30 mg/kg, s.i.d.) the MeST increases to over 120 days, with more than 60% of the treatment group still alive 12 months later (p<0.0001). […] Further experiments were performed using a SCID version of C57BL/6 mice (B6.CB17-Prkdc^scid/SzJ), a mouse model of B6 background, but is immune-compromised.
as §3, with “was” for “was also”

SW1088 = experiment: brain tumor cell line growth inhibition, SW1088; type: cell-based; conditions: Homo sapiens; SW1088, astrocytoma
Protocol: as §1

Daoy = experiment: brain tumor cell line growth inhibition, Daoy; type: cell-based; conditions: Homo sapiens, desmoplastic cerebellar medulloblastoma
Protocol: as §1

For `O=C(Cc1ccc(-c2ccc(N3CCOCC3)cc2)cn1)NCc1cccc(F)c1` [Compound 76], the pIC50 (SK-N-FI) was 9.34, the Median survival (GL261 glioma [1]; 15 mg/kg bid oral) was 30.5 and the “survival Range” value (GL261 glioma [1]; 15 mg/kg bid oral) was 25-34. The Median survival (GL261 glioma [1]; 30 mg/kg bid oral) was 29, the “survival Range” value (GL261 glioma [1]; 30 mg/kg bid oral) was 23-32 and the “Average weight at endpoint” value ([2]; 15 mg/kg) was 16.9 g. For the same molecule, the “Average weight at endpoint” value ([2]; 30 mg/kg) was 15.0 g, the pIC50 (GL261) was 8.06 and the “residual tumor by MRI” value (GL261 glioma [3]; 30 mg/kg s.i.d., C57BL/6 mice) was “no residual tumor is observed”. The “histopathology of tumor site / residual GL261 glioma” value (GL261 glioma [3]; Compound 76 treated mice) was “large areas of necrosis and lymphocytic infiltration; also recorded: lymphocytic infiltration of the tumor site”, the brain edema (GL261 glioma [3]; compared with placebo or Temodar treated mice) was “much less brain edema” and the “median survival time (MeST), range” value (GL261 glioma [3]; oral 30 mg/kg, b.i.d.) was 23 to 32 days. The “median survival time (MeST)” value (GL261 glioma [3]; oral 30 mg/kg, b.i.d. (twice daily), vehicle 21 days, 30 mg/kg) was 29 days and 30.5 days, the “treatment group still alive 12 months later” value (GL261 glioma [3]; oral 30 mg/kg, s.i.d.) was “more than 60%” and the “growth rate of intracerebral GL261 glioma” value (GL261 glioma [3]; relative to control groups) was “very significantly slows the rate of tumor growth; also recorded: slows the growth rate”. For the same molecule, the “treated mice with complete tumor regression” value (GL261 glioma [3]; single dose per day (s.i.d.)) was “up to 60%”, the pIC50 (SW1088) was 7.66 and the pIC50 (Daoy) was 7.26.
